The results in this text go back to patent publication US12673052B2, “Combinations for the treatment of cancer” (Exelixis, Inc., priority 2020, dated 2026).

The nature of series [1]: In vitro plasma protein binding. It counts as in vitro ADME. The following applies: 0.2 and 1 μM. On the procedure: Plasma PK of Compound 1 was characterized in rats and beagle dogs. Toxicokinetic (TK) evaluations of oral Compound 1 were evaluated in repeat-dose studies in rats and dogs. Plasma protein binding was determined in mouse, rat, dog, monkey, and human plasma in vitro. Biotransformation and metabolite profiling of Compound 1 were investigated in vitro using mouse, rat, dog, monkey, and human liver microsomal fractions and hepatocytes and in vivo in rats and dogs. P-glycoprotein (P-gp) and breast cancer resistance protein (BCRP) transporter interaction studies, in vitro experiments evaluating cytochrome P450 (CYP) induction and inhibition by Compound 1, and CYP and glucuronosyltransferase (UGT) substrate specificity studies of Compound 1 were also performed.
Compound 1 (10 μM) was 97.2 and 97.5% protein bound in monkey and human plasma, respectively.

A short description of series [2]: Liver microsomal stability assay. Conditions: liver microsomes. The format is in vitro ADME, monkey. On the procedure:
(§1) In the liver microsomal stability assay, CLint was 0.601 mL/min/g liver in mouse, 0.563 mL/min/g liver in rat, 0.315 mL/min/g liver in dog, 0.734 mL/min/g liver in monkey, and 0.639 mL/min/g liver in human. In the hepatocyte stability assay, Compound 1 CLint was 0.373 mL/min/g liver in mouse, 0.285 mL/min/g liver in rat, 1.08 mL/min/g liver in dog, 0.533 mL/min/g liver in monkey, and 0.317 mL/min/g liver in human.

A short description of series [3]: Hepatocyte stability assay. The format is in vitro ADME, dog. The following applies: hepatocytes. On the procedure:
(§2) The mean plasma t1/2, z values were approximately 9 hours in rats and 4 hours in dogs. Interspecies scaling based on body weight to predict PK parameters in humans could not be performed because dogs (larger species) cleared Compound 1 faster than rats (smaller species). Therefore, the human PK was projected based on one species (rat). […] This apparent clearance value (CL/F) was used to predict steady-state exposure (AUC and average plasma concentration [Cavg]) in humans for the proposed first-in-human (FIH) starting dose for Study Compound 1-001.
as §1

A short description of series [4]: Hepatocyte stability assay. Conditions: hepatocytes. It counts as in vitro ADME, mouse. On the procedure:
as §1

The nature of series [5]: Hepatocyte stability assay. It counts as in vitro ADME, rat. The following applies: hepatocytes. Here is the method: as §2, §1
For series [6], the system named is primary human macrophages. Kind of series: Efferocytosis: primary human macrophages cultured with apoptotic Jurkat cells. It counts as cell-based. Conditions: read-out: Cellular IC50 (nM) (n = 2); one row per donor (#1-#5); geometric mean +/− geometric standard deviation. Here is the method:
In addition, the TAM RTKs are critical in the process of efferocytosis, or the recognition and phagocytosis of apoptotic cells that maintains normal tissue homeostasis. When efferocytosis is inhibited, macrophages engage a proinflammatory activation response. When primary human macrophages are cultured with apoptotic Jurkat cells in the presence of Compound 1, their phagocytic ability was inhibited in a dose dependent manner. In Table 5, the IC50 from 5 independent donors are listed.

A short description of series [7]: Liver microsomal stability assay. It counts as in vitro ADME, mouse. Conditions: liver microsomes. Here is the method:
as §1
(Microsomes from liver hold many membrane-bound enzymes, among them those of drug oxidation.)

Series [8] can be described thus: Permeability in Caco-2 cells. It counts as in vitro ADME. The following applies: human, highly permeable, read-out: apparent permeability coefficient (Papp). In general terms: Passage across Caco-2 layers is used to estimate intestinal permeability.
A further series addresses MET (Homo sapiens, UniProt P08581). As to the kind of experiment: RTK autophosphorylation ELISA, PC-3 cells stimulated with HGF. It counts as cell-based. The arrangement: cell lines (PC-3, HUVEC, and A-172) stimulated with ligands to their respective receptors to induce autophosphorylation (MET, VEGFR2, and AXL); endogenous in cells; host or cells: PC-3. Conditions: MET (PC-3), ligand HGF; read-out: Cellular IC50. On the procedure:
The activity of Compound 1 was evaluated in cell-based assays that assessed the mechanistic effects of the compound in tumor and normal cells. Consistent with the biochemical data, Compound 1 is a potent inhibitor of cellular RTKs as assessed by analysis of receptor autophosphorylation as measured by enzyme-linked immunosorbent assay. Assays were performed using cell lines (PC-3, HUVEC, and A-172) stimulated with ligands to their respective receptors to induce autophosphorylation (MET, VEGFR2, and AXL) or a cell line (293A) transfected with an expression vector encoding the receptor of interest (MER). Inhibition of endogenous phosphorylated MET by Compound 1 in Hs 746T gastric carcinoma cells was also investigated due to the presence of the skip-splice mutation of exon 14 in the MET gene. This MET exon 14 alteration leads to increased MET stability and oncogenic activation, including constitutive MET phosphorylation. Also this mutation is known to occur in 3% of lung adenocarcinoma patients and to be sensitive to MET-targeted therapies (Frampton et al 2015).
(An ELISA detects its analyte on a solid surface through an enzyme-linked reagent.)

Series [9] in a line: Hepatocyte stability assay. The format is in vitro ADME, human. The following applies: hepatocytes. Here is the method: as §2, §1

Each structure is given as a SMILES string. pIC50: −log10 of the molar value. Several values for one entry are separate records, joined by “and”; a condition that tells them apart may be missing. Identical values can stand only once.

MET, sequence (P08581 25-1390): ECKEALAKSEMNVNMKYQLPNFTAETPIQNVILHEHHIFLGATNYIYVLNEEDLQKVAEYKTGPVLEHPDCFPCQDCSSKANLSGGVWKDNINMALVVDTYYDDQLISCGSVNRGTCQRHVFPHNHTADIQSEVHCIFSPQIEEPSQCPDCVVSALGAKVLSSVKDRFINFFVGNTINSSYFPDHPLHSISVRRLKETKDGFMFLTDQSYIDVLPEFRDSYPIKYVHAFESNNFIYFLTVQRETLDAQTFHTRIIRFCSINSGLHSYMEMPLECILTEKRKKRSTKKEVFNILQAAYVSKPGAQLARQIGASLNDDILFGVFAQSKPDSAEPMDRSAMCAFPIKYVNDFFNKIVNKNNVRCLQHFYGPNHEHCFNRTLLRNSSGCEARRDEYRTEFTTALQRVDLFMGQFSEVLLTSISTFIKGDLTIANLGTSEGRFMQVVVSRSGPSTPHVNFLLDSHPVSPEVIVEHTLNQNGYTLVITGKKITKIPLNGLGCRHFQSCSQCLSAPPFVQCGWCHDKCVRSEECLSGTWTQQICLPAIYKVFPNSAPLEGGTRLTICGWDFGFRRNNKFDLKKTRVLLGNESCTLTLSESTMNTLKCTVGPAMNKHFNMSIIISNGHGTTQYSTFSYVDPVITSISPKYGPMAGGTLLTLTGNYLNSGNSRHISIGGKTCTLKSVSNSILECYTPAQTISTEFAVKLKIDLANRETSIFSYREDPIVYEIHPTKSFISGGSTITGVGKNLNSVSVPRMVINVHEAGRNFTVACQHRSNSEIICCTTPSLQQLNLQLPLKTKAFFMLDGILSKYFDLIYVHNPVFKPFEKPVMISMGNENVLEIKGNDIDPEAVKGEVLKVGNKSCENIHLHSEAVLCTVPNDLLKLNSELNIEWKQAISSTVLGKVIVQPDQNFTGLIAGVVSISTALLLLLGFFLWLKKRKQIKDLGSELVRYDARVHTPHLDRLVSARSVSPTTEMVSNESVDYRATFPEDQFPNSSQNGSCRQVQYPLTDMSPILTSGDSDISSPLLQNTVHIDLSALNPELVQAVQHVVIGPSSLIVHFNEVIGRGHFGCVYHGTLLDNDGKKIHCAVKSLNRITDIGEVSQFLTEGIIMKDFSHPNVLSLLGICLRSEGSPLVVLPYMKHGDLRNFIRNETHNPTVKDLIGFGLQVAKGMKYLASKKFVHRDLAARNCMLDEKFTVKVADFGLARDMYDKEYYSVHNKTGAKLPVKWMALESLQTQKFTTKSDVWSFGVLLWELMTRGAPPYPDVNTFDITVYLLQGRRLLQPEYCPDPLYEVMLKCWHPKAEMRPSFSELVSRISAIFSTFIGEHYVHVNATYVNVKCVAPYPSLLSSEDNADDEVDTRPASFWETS

Usually fraction unbound stands for the share of the substance not bound to proteins or other matrix. Low values mean extensive binding, high ones weak binding. A word on the IC50: it is the concentration that inhibits the measured activity by half. As usually defined, the Papp is the rate of passage across a membrane or cell layer, normalised by area and donor concentration. As usually defined, the pIC50 is −log10 of the IC50, conventionally taken in molar units. As for `CNC(=O)c1cc2c(Oc3ccc(NC(=O)C4(C(=O)Nc5ccc(F)cc5)CC4)cc3)ccnc2cc1OC` [Compound 1, 1-N′-(4-Fluorophenvl)-1-N-[4-[7-methoxy-6-(methylcarbamovl)quinolin-4-yl]oxyphenyl]cyclopropane-1,1-dicarboxamide], the fraction unbound in [1] (dog), in [1] (mouse) and in series [1] (rat) was below 0.01 each time. Moreover, the CLint in [2] is recorded as 0.734 mL/min/g liver; in series [3], 1.08 mL/min/g liver; in [4], 0.373 mL/min/g liver; in series [5] it was 0.285 mL/min/g liver; in series [7], 0.601 mL/min/g liver; in [9], 0.317 mL/min/g liver. Moreover, in series [6], the IC50 is 42.7 nM and 45.1 nM and 44 nM and 96.5 nM and 181 nM. Also, the Papp in series [8] is 3.83 ×10⁻⁶ cm/s. Besides, the pIC50 on MET was 7.82.
